Data taken from patent US20220370545A1, “INTEGRIN RECEPTOR ALPHA V BETA 3 AND ITS LIGAND INVOLVED IN CHRONIC ITCH” (North Carolina State University, priority 2019, published 2022).

B1: periostin: fasciclin extracellular matrix protein, endogenous ligand of integrin αvβ3; mouse recombinant used (protein)
chain: NSYYDKVLAHSRIRGRDQGPNVCALQQILGTKKKYFSSCKNWYQGAICGKKTTVLYECCPGYMRMEGMKGCPAVMPIDHVYGTLGIVGATTTQHYSDVSKLREEIEGKGSYTYFAPSNEAWENLDSDIRRGLENNVNVELLNALHSHMVNKRMLTKDLKHGMVIPSMYNNLGLFINHYPNGVVTVNCARVIHGNQIATNGVVHVIDRVLTQIGTSIQDFLEAEDDLSSFRAAAITSDLLESLGRDGHFTLFAPTNEAFEKLPRGVLERIMGDKVASEALMKYHILNTLQCSEAITGGAVFETMEGNTIEIGCEGDSISINGIKMVNKKDIVTKNGVIHLIDEVLIPDSAKQVIELAGKQQTTFTDLVAQLGLASSLKPDGEYTLLAPVNNAFSDDTLSMDQRLLKLILQNHILKVKVGLSDLYNGQILETIGGKQLRVFVYRTAICIENSCMVRGSKQGRNGAIHIFREIIQPAEKSLHDKLRQDKRFSIFLSLLEAADLKDLLTQPGDWTLFAPTNDAFKGMTSEERELLIGDKNALQNIILYHLTPGVYIGKGFEPGVTNILKTTQGSKIYLKGVNETLLVNELKSKESDIMTTNGVIHVVDKLLYPADIPVGNDQLLELLNKLIKYIQIKFVRGSTFKEIPMTVYRPAMTKIQIEGDPDFRLIKEGETVTEVIHGEPVIKKYTKIIDGVPVEITEKQTREERIITGPEIKYTRISTGGGETGETLQKFLQKEVSKVTKFIEGGDGHLFEDEEIKRLLQGDTPAKKIPANKRVQGPRRRSREGRSQ

What was measured:
[1] = system: Integrin αvβ3 on DRG Sensory Neurons; assay: Fura-2 calcium imaging of periostin-induced calcium response in cultured DRG sensory neurons; type: cell-based, mouse; details: periostin 16 ng/μl
Protocol: DRGs were isolated from mice and dissociated in 1 mL of media containing 2.5 U/mL of dispase (Fisher Scientific, Hampton, New Hampshire, United States of America) and 2.5 mg/mL of collagenase (Fisher Scientific, Hampton, New Hampshire, United States of America). After dissociation, the cells were washed with complete media (DMEM (HiMedia Laboratories, Mumbai, India) with 10% FBS (Atlanta Biologicals, Flowery Branch, Georgia, United States of America) and 1% PenStrep (VWR International, Radnor, Pa., United States of America)) and pelleted at 1000 rpm for 15 minutes. Approximately 30 μL of the cell suspension was plated on 18 mm round glass slides with a coating of laminin (Sigma Aldrich, St. Louis, Miss., United States of America) and poly-L-lysine (Sigma Aldrich, St. Louis, Miss., United States of America) and incubated for 1.5 hours. Afterwards, 1 mL of complete media was added, and the cells were incubated overnight. All incubation steps were done at 37° C. with 5% CO2.
(§1) Before imaging, cells were incubated in 350 μL of complete media containing 1 μM Fura-2 AM (Enzo Life Sciences, Farmingdale, New York, United States of America) for 30 min at 37° C. with 5% CO2. During imaging, the cells were perfused with a buffer containing the following: 135 mM sodium chloride, 3.2 mM potassium chloride, 2.5 mM magnesium chloride, 2.8 mM calcium chloride, 667 μM monobasic sodium phosphate, 14.2 mM sodium bicarbonate, and 10.9 mM D-glucose (all from VWR International, Radnor, Pennsylvania, United States of America) with a pH between 7.00 and 7.40. The buffer and the holding plate were kept at 37° C. while imaging. Imaging data was collected on a TE200 inverted microscope using NIS Elements software (Nikon, Melville, New York, United States of America). Cells were exposed to 340 nm and 380 nm wavelengths for 100 ms and the A340/A380 ratio was calculated. Traces were analyzed using Excel and responses greater than 10% of the baseline were counted. Each data point in the scatter plots represented one coverslip.
Calcium Imaging: Calcium imaging will be performed on the DRG neurons as previously described (Pitake et al., 2018). Briefly, DRG neurons will be incubated for longer than 30 min in DMEM containing 1 μM of a fluorescent indicator Fura-2 AM (Enzo Life Sciences, Inc., Farmingdale, N.Y., United States of America). The neurons will be perfused in a standard bath solution containing 140 mM NaCl, 5 mM KCl, 2 mM MgCl2, 2 mM CaCl2, 10 mM Hepes and 10 mM D-glucose at pH 7.4 adjusted with NaOH. A calcium-free bath solution will be prepared by omitting 2 mM CaCl2 from the standard bath solution […] adding 5 mM EGTA. Fura-2 fluorescence excited at 340 and 380 nm and emission will be monitored at 510 nm with a digital CCD camera (Andor Clara DR-4152, Andor Technology Ltd, Belfast, United Kingdom). Data will be obtained by every 100 ms using an imaging software (NIS-Elements AR 4.13.04, Nikon Corporation, Tokyo, Japan) and analyzed by Microsoft Excel (Microsoft Corporation, Redmond, Wash., United States of America). Values of calcium responses will be normalized by dividing measured values (F) with average values of initial 5 frames (F0) of each cell and described as F/F0. In this study, changes in each response to an application with F/F0>0.1 will be regarded as positive. Cells not responding to 100 mM KCl, which is applied at the end of each experiment, will be regarded as non-neuronal cells and excluded from analysis.
Periostin (10 ug/ml) will be used to evoke calcium influx. This response has been optimized. The peptide inhibitors will be tested on DRG neurons to measure calcium influx in response to periostin. Data on calcium imaging will be presented by presenting each mouse±SEM. The IC50 value of the inhibitor will also be determined
Additional inhibitors were studied using the calcium imaging method described in Example 3. Briefly, the Fura2-AM calcium imaging method was performed on live dorsal root ganglia (DRG) neurons (ex vivo). […]

TRPA1 = target: T1, TRPA1 (Mus musculus, UniProt Q8BLA8); assay: AITC (mustard)-induced calcium response in DRG neurons (specificity control); type: cell-based; details: perfusion with 100 nM cilengitide
T1 construct: endogenous in cells; host or cells: primary mouse dorsal root ganglion neurons
T1 sequence (Q8BLA8 whole entry, the tested form may be a part): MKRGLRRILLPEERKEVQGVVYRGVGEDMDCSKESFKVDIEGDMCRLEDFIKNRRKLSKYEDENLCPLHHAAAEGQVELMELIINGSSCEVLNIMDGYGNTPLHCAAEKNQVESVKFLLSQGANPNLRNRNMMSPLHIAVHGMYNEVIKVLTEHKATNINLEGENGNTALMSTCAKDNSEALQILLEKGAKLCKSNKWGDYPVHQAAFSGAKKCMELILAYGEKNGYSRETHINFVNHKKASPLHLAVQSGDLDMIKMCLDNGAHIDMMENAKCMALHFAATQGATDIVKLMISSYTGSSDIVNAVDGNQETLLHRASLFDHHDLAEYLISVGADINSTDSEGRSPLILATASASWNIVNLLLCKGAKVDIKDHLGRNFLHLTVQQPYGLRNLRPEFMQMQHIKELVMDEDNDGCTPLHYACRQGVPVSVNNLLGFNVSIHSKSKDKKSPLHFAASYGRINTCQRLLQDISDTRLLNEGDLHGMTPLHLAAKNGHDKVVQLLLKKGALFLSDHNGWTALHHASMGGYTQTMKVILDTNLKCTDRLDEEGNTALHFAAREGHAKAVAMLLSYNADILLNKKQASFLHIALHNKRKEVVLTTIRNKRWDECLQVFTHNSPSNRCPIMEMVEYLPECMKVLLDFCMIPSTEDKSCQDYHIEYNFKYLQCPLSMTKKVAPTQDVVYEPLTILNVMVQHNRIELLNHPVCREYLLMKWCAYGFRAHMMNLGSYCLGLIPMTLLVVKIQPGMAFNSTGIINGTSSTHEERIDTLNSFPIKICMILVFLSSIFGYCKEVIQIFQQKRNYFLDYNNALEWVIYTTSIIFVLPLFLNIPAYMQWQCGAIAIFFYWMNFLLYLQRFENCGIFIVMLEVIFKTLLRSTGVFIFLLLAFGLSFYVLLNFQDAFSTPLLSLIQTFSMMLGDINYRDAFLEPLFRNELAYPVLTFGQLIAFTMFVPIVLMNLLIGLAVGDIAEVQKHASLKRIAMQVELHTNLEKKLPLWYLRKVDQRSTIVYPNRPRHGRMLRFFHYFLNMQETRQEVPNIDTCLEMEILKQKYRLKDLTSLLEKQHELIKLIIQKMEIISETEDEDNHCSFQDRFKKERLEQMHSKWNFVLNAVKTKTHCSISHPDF
Protocol: as §1

[2] = system: periostin-induced itch behavior in mice; assay: Scratching behavior after intradermal periostin injection in the dorsal neck of mice; type: in vivo, mouse
Protocol: All behavioral experiments were conducted during the light cycle at ambient temperature (23° C.). Behavioral assessment of scratching behavior was conducted as described previously (Mishra et al., 2011). Briefly, mice were injected intradermal into the nape of the neck with periostin (R&D), histamine, and chloroquine (all Millipore-Sigma) as previously described (Shimada and LaMotte, 2008). Compounds were diluted in PBS and the same was used as a vehicle. […] Scratching behavior was recorded for 30 minutes and data was presented in bouts per 30 minutes for mice. One bout was defined as scratching behavior toward the injection site between lifting the hind leg from the ground and either putting it back on the ground or guarding the paw with the mouth. Injections of periostin, and capsaicin in the mouse cheek itch/pain model were performed as described previously (Shimada and LaMotte, 2008). For eye wipes assay, periostin and capsaicin were dropped on mouse cornea and counted wipes for 1-minute. Injection volume was always 20 μl in mice. For dog's study, periostin (25 μg/25 μl) was injected in the dorsal neck (s.c.) and behavior was recorded and quantified for 30 minutes as “duration of pruritus manifestation” (DPM), as described earlier (Paps et al., 2016). For non-human primate (NHP) studies, periostin (25 μg/100 μl) was injected in the NHP thigh (s.c.) on the lateral side of the upper part of the hind limb; the skin area over the vastus lateralis muscle. The lateral side of the upper part of the hind limb was chosen as an injection site because this location is safe and easy to access when the animal is in a chair. The number of scratches is easily countable in NHP. When different raters separately scored a single tape, the ratings indicated high interrater reliability (coefficient of correlation, r>0.95). This method of itch readout in NHP has been used and accepted (Ko and Naughton, 2000). The behavior was recorded for 30 minutes duration and number of scratches quantified. In NHP, a scratch is defined as one brief (<1 s) episode of scraping contact of the forepaw or hind paw on the skin surface

BMMC mast cells = assay: Calcium imaging on mast cells; type: cell-based, mouse; details: mast cells stimulated with periostin alone
Protocol: Changes in cytosolic Ca^2+ were assayed using ratiometric Fura-2 AM measurements as described (Cruse et al., 2013). Fluorescence was measured at two excitation wavelengths (340 and 380 nm) and an emission wavelength of 510 nm using a BioTek Neo2 multimode plate reader (BioTek, Winooski, Vt., United States of America). The ratio of fluorescence readings was calculated following subtraction of background fluorescence of cells not loaded with Fura-2 AM.

Molecule | periostin-dependent calcium response ([1]; perfusion with 100 nM cilengitide) | AITC-induced calcium response (TRPA1) | periostin-induced itch behavior ([2]; cilengitide 100 nM i.p. 10 minutes prior to periostin i.d. (5 μg/20 μl)) | periostin-induced itch behavior ([2]; cilengitide 100 nM i.v. 10 minutes prior to periostin i.d. (5 μg/20 μl)) | itch behavior after cilengitide alone ([2]; cilengitide injected alone, no periostin) | comparison of inhibitory effect among routes of injection ([2]; intravenous pre-injection versus i.p. and mix) | periostin-induced itch behavior ([2]; periostin and cilengitide mixed together and injected s.c.) | DRG sensory neurons with periostin-dependent changes in intracellular calcium [1] | scratching behavior after periostin injection ([2]; single i.d. injection 5 μg/20 μl in dorsal neck, within 15 minutes) | calcium release in mast cells (BMMC mast cells)
CC(C)[C@H]1C(=O)N[C@@H](CCCN=C(N)N)C(=O)NCC(=O)N[C@@H](CC(=O)O)C(=O)N[C@H](Cc2ccccc2)C(=O)N1C [cilengitide, cyclo RGDf-n(Me)V] | significantly reduced | did not reduce | significantly reduced | significantly reduced | did not induce itch behavior | strongest inhibitory effect | significantly reduced |  |  | 
B1 |  |  |  |  |  |  |  | about 10±2% | robust scratching behavior | no periostin-dependent change in calcium release
